# Measurements taken from patent publication US20240384268A1, “Oligonucleotides” (Hudson Institute of Medical Research, priority 2021, published 2024).
# In the oligonucleotide strings, read from the 5' end, every base follows the letter of its sugar. An asterisk marks phosphorothioate; unmarked linkages are phosphodiester. Other units and linkages are bracketed, terminal groups are in braces. A string of capitals states the bases alone. d = 2'-deoxy (DNA); m = 2'-O-methyl
# Target: cGAS (Homo sapiens, UniProt Q8N884)
# Assay: ISD70-driven IP-10 (and IFN-β) production in THP-1 cells, ELISA
# Type: cell-based
# Set-up: endogenous in cells; host or cells: THP-1 (undifferentiated)
# Conditions: THP-1; 100 nM ASO overnight, then ISD70 2.5 μg/ml 7-8 h; percentage of ISD70 only
# Sequence of cGAS (Q8N884 whole entry): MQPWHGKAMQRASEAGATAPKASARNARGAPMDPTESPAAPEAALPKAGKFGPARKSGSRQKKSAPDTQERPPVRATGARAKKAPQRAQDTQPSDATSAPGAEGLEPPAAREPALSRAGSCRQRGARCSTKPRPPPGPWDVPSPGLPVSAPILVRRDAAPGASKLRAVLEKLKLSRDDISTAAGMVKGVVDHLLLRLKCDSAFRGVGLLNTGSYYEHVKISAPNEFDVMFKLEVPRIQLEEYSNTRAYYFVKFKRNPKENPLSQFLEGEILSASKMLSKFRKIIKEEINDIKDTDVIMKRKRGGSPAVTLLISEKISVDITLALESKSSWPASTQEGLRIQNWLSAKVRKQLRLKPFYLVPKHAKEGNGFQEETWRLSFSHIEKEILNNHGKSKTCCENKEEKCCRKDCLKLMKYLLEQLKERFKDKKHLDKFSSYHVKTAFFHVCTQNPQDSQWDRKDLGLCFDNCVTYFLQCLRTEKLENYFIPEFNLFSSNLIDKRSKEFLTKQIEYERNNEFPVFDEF
row,Substance,cGAS-100 nM: averaged IP-10 levels relative to ISD70
1,"mA*mU*mU*mU*mC*C*A*C*A*T*G*C*C*C*A*mG*mU*mG*mU*mU (AUUUCCACATGCCCAGUGUU; antisense; sugars from the 5' end m5 d10 m5, all phosphorothioate, methylation of C not given here) [[CDKN2B-AS1]626]",52.58%
2,mC*mA*mG*mU*mC*T*C*C*A*T*G*T*C*C*C*mA*mG*mG*mC*mC (mC*mA*mG*mU*mC*dT*dC*dC*dA*dT*dG*dT*dC*dC*dC*mA*mG*mG*mC*mC; antisense) [[CDKN2B-AS1]2233],75.92%
3,mC*mA*mG*mU*mG*T*T*T*T*T*A*A*T*T*T*mU*mG*mU*mA*mG (mC*mA*mG*mU*mG*dT*dT*dT*dT*dT*dA*dA*dT*dT*dT*mU*mG*mU*mA*mG; antisense) [[CDKN2B-AS1]613],60.94%
4,mC*mU*mU*mG*mU*G*A*A*A*A*G*A*T*T*A*mU*mC*mU*mU*mC (mC*mU*mU*mG*mU*dG*dA*dA*dA*dA*dG*dA*dT*dT*dA*mU*mC*mU*mU*mC) [[CDKN2B-AS1]2139],33.75%
5,"mG*mC*mA*mG*mU*C*T*C*C*A*T*G*T*C*C*mC*mA*mG*mG*mC (GCAGUCTCCATGTCCCAGGC; antisense; sugars from the 5' end m5 d10 m5, all phosphorothioate, methylation of C not given here) [[CDKN2B-AS1]2234]",10.02%
6,mG*mU*mC*mU*mC*C*A*T*G*T*C*C*C*A*G*mG*mC*mC*mU*mC (mG*mU*mC*mU*mC*dC*dA*dT*dG*dT*dC*dC*dC*dA*dG*mG*mC*mC*mU*mC) [[CDKN2B;AS1]2231],84.16%
7,"mG*mU*mG*mU*mC*C*T*T*C*A*T*G*C*T*T*mU*mG*mG*mA*mU (GUGUCCTTCATGCTTUGGAU; antisense; sugars from the 5' end m5 d10 m5, all phosphorothioate, methylation of C not given here) [[CDKN2B-AS1]1415]",58.18%
8,mG*mU*mG*mU*mU*T*T*T*A*A*T*T*T*T*G*mU*mA*mG*mA*mG (mG*mU*mG*mU*mU*dT*dT*dT*dA*dA*dT*dT*dT*dT*dG*mU*mA*mG*mA*mG) [[CDKN2B-AS1]611],66.24%
9,mU*mA*mU*mU*mU*C*C*A*C*A*T*G*C*C*C*mA*mG*mU*mG*mU (mU*mA*mU*mU*mU*dC*dC*dA*dC*dA*dT*dG*dC*dC*dC*mA*mG*mU*mG*mU; antisense) [[CDKN2B-AS1]627],80.99%

# Same assay, conditions: THP-1; 2′OMe or PS oligos, 100-250 nM, pre-treatment as in figure legends; ISD70 2.5 μg/ml
row,Substance,inhibition of ISD70-driven IP-10 production (in words)
1,"mG*mC*mA*mG*mU*C*T*C*C*A*T*G*T*C*C*mC*mA*mG*mG*mC (GCAGUCTCCATGTCCCAGGC; antisense; sugars from the 5' end m5 d10 m5, all phosphorothioate, methylation of C not given here) [[CDKN2B-AS1]2234]",robustly inhibited ISD70-dependent IP-10 production
